Data reported in ChEMBL document CHEMBL3872283, “Design, Synthesis, and Evaluation of Novel and Selective G-protein Coupled Receptor 120 (GPR120) Spirocyclic Agonists” (ACS Med Chem Lett, 2017).
The source made the active and inactive calls. No cut-off for these calls is given here.

How the values were obtained:
[1] = target: T1, Free fatty acid receptor 4 (Homo sapiens, UniProt Q5NUL3); experiment: Agonist activity at ARMS2-PK2 -tagged human GPR120 short isoform expressed in CHOK1 cells assessed as induction of beta-arrestin2 recruitment after 90 mins by luminescence assay; assay type: cell-based, CHO-K1
T1 sequence (Q5NUL3 whole entry): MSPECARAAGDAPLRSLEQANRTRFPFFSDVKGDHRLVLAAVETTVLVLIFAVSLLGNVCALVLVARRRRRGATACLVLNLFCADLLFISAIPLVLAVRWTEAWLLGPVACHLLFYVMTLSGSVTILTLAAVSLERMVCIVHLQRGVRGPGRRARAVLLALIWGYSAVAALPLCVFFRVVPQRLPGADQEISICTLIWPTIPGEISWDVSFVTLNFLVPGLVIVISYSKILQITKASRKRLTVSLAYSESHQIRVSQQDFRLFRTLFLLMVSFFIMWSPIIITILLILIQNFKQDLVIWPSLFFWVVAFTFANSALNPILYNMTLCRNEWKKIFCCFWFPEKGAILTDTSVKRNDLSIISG

[2] = target: T1, Free fatty acid receptor 4; experiment: Agonist activity at human GPR120 short isoform expressed in CHOK1 cells assessed as induction of IP1 accumulation after 60 mins by HTRF assay; assay type: functional, cell-based, CHO-K1
[3] = target: T1, Free fatty acid receptor 4; experiment: Agonist activity at human GPR120 assessed as induction of beta-arrestin recruitment
[4] = target: T2, Free fatty acid receptor 4 (Mus musculus, UniProt Q7TMA4); experiment: Agonist activity at mouse GPR120 assessed as induction of beta-arrestin recruitment
T2 sequence (Q7TMA4 whole entry): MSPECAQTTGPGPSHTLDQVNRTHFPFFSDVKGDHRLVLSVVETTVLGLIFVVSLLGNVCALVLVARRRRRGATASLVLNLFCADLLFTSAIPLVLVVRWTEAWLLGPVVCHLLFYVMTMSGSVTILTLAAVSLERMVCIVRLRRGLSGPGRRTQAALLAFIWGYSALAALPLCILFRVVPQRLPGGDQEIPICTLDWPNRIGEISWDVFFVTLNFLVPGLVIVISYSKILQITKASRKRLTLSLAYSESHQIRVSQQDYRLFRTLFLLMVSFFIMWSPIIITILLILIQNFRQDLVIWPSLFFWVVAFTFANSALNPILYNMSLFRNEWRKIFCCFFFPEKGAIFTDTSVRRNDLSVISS

[5] = target: T1, Free fatty acid receptor 4; experiment: Agonist activity at human GPR120 assessed as induction of IP1 accumulation; assay type: functional
[6] = target: T2, Free fatty acid receptor 4; experiment: Agonist activity at mouse GPR120 assessed as induction of IP1 accumulation; assay type: functional
[7] = target: T3, Free fatty acid receptor 1 (Homo sapiens, UniProt O14842); experiment: Agonist activity at human GPR40 assessed as induction of IP1 accumulation; assay type: functional
[8] = target: T2, Free fatty acid receptor 4; experiment: Agonist activity at mouse GPR120 expressed in U2OS cells assessed as induction of beta-arrestin2 recruitment after 90 mins by luminescence assay; assay type: cell-based
[9] = target: T2, Free fatty acid receptor 4; experiment: Agonist activity at mouse GPR120 expressed in CHOK1 cells assessed as induction of IP1 accumulation after 60 mins by HTRF assay; assay type: functional, cell-based, CHO-K1
[10] = target: T3, Free fatty acid receptor 1; experiment: Agonist activity at human GPR40 expressed in HEK293 cells assessed as induction of IP1 accumulation after 60 mins by HTRF assay; assay type: functional, cell-based
[11] = test system: Mus musculus; experiment: Antidiabetic activity in diet-induced obese mouse assessed as insulin sensitivity by measuring reduction in glucose at 10 mg/kg, po qd administered daily via gavage for 14 days measured on day 14 post dose; assay type: functional, organism-based
[12] = test system: Mus musculus; experiment: Antidiabetic activity in diet-induced obese mouse assessed as insulin sensitivity by measuring reduction in glucose at 10 mg/kg, po qd administered daily via gavage for 28 days measured on day 28 post dose; assay type: functional, organism-based
[13] = test system: Mus musculus; experiment: Decrease in insulin levels in diet-induced obese mouse at 10 mg/kg, po qd administered daily via gavage for 14 days measured on day 14 post dose; assay type: functional, organism-based
[14] = test system: Mus musculus; experiment: Decrease in insulin levels in diet-induced obese mouse at 10 mg/kg, po qd administered daily via gavage for 28 days measured on day 28 post dose; assay type: functional, organism-based
[15] = test system: Mus musculus; experiment: Antidiabetic activity in diet-induced obese mouse assessed as increase in glucose infusion rate during hyperinsulinemic euglycemic clamp procedure at 10 mg/kg, po qd administered daily via gavage measured after 28 days; assay type: functional, organism-based
[16] = test system: Mus musculus; experiment: Toxicity in diet-induced obese mouse assessed as change in body weight at 10 mg/kg, po qd administered daily via gavage for 28 days; assay type: organism-based; conditions: in vivo, 672 h

T3 sequence (O14842 whole entry): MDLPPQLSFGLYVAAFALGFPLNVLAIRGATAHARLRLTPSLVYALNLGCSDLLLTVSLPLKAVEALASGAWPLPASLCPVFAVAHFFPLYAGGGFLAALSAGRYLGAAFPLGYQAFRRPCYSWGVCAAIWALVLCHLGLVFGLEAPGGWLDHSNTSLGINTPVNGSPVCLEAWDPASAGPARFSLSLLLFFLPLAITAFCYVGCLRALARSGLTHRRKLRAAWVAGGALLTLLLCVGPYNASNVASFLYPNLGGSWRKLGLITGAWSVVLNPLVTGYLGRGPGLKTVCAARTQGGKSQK

Compound	EC50 [1] [nM]	EC50 [2] [nM]	EC50 [8] [nM]	EC50 [9] [nM]	EC50 [10] [nM]	also measured
CC1CC(CC(=O)O)CCC12CCN(c1cc(OC(F)(F)F)ccc1Cl)CC2 (stereo unspecified)	580	440				
O=C(O)C1CCN(c2ccc(-c3cc(OC(F)(F)F)ccc3F)cc2)CC1						EC50 [3]: 1600 nM; EC50 [4]: 320 nM; EC50 [5]: 300 nM; EC50 [6]: 89 nM; EC50 [7]: > 10000 nM
O=C(O)c1ccc(C2CCN(c3cc(OC(F)(F)F)ccc3F)CC2)cc1						EC50 [3]: > 10000 nM; EC50 [4]: > 10000 nM; EC50 [5]: > 10000 nM; EC50 [6]: > 10000 nM; EC50 [7]: > 10000 nM
O=C(O)CC1CCC2(CC1)CCN(c1cc(Cl)cc(Cl)c1)CC2	190	220	120	51	6300	
O=C(O)CN1CCC2(CC1)CCN(c1cc(OC(F)(F)F)ccc1F)CC2	> 10000	> 10000				
O=C(O)C1CCC(C2CCN(c3cc(OC(F)(F)F)ccc3F)CC2)CC1 (stereo unspecified)						EC50 [4]: 990 nM; EC50 [5]: 700 nM; EC50 [6]: 1490 nM; EC50 [7]: > 10000 nM
O=C(O)CCc1cc2cc(-c3cc(OC(F)(F)F)ccc3F)ccc2o1						EC50 [3]: 16 nM; EC50 [4]: 21 nM
O=C(O)CC1CCC2(CC1)CCN(c1cc(C(F)(F)F)ccc1F)CC2	2200	1200	3000	590	> 10000	
CCc1ccc(CCOc2ccc(CC3SC(=O)NC3=O)cc2)nc1 (stereo unspecified) [PIOGLITAZONE]						Activity [11]: Active; Activity [12]: Active; Activity [13]: Active; Activity [14]: Active; Activity [15]: Active; Activity [16]: Toxic
COc1ccc(Cl)c(N2CCC3(CCC(CC(=O)O)CC3)CC2)c1	2500	2100	5300	570	> 10000	
CC1(C)Cc2cc(Cl)cc(N3CCC4(CCC(CC(=O)O)CC4)CC3)c2O1	3100	3300	4000	670	> 10000	
N#Cc1cc(SC(F)(F)F)cc(N2CCC3(CCC(CC(=O)O)CC3)CC2)c1	480	360	140	44	> 10000	
O=C(O)CC1CCC2(CC1)CCN(c1cc(F)cc(Cl)c1F)CC2	1400	420	1100	190	8100	
Cc1cc(-c2cc(OC(F)(F)F)ccc2Cl)cc(C)c1OCCCC(=O)O						EC50 [3]: 100 nM; EC50 [4]: 35 nM; EC50 [7]: > 10000 nM
O=C(O)CCC1CCC2(CC1)CCN(c1cc(OC(F)(F)F)ccc1Cl)CC2	1000	2700				
O=C(O)CC1CCC2(CC1)CCN(c1ccccc1Cl)CC2	> 10000	> 10000	> 10000	> 10000	> 10000	
O=C(O)C1CC12CCC1(CCN(c3cc(OC(F)(F)F)ccc3Cl)CC1)CC2 (stereo unspecified)	3900	2200				
OCCC1CCC2(CC1)CCN(c1cc(OC(F)(F)F)ccc1Cl)CC2	330	4300				
O=C(O)CC1CCC2(CC1)CCN(c1cc(OC(F)(F)F)ccc1F)CC2	700	130	470	49	> 10000	
O=C(O)CC1CCC2(CC1)CCN(c1cc(C(F)(F)F)ccn1)CC2	9200	3100	4200	1300	> 10000	
O=C(O)CC1CCC2(CCN(c3cc(OC(F)(F)F)ccc3Cl)CC2)OC1 (stereo unspecified)	2100	5700				
N#Cc1ccc(OC(F)(F)F)cc1N1CCC2(CCC(CC(=O)O)CC2)CC1	370	200	290	66	2500	
CC1CC2(CCC1CC(=O)O)CCN(c1cc(OC(F)(F)F)ccc1Cl)CC2 (stereo unspecified)	2700	4100				
CC(C(=O)O)C1CCC2(CC1)CCN(c1cc(OC(F)(F)F)ccc1Cl)CC2 (stereo unspecified)	4400	3500				
